Experimental findings from patent publication US8901118B2, “Compounds and methods for kinase modulation, and indications therefor” (Plexxikon Inc., priority 2010, dated 2014) are described below.

The target of one experiment is T1, BCR-NTRK3 BaF3 cells (Homo sapiens, UniProt Q16288).
T1 construct: fused on or other part: P11274 (Breakpoint cluster region protein)
Nature of the experiment: BaF3 BCR-NTRK3 cell proliferation assay (ATPlite). As to conditions: read-out: Inhibition of Cell Proliferation IC50, BCR/BaF3 TrkC. It is filed as cell-based. An outline of the steps: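 BaF3 lines were seeded at 10,000 cells/well in growth medium with 1 mg/mL G418 but no IL-3, and MV-4-11 cells at 25,000 cells/well; plates were left overnight at 37 °C. Compounds were added as an 8-point 1:3 series with a top concentration of 10 μM and incubated 3 days. IC50 was taken from ATPlite luminescence.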

For the next experiment, the target named is TrkA kinase (Homo sapiens, UniProt P04629). The experiment is described as follows: TrkA kinase biochemical activity assay (AlphaScreen). As to conditions: 100 μM ATP; read-out: Biochemical Inhibition IC50 TrkA. An outline of the steps: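 Recombinant TrkA with 30 nM biotin-(E4Y)10 and 100 μM ATP in 25 mM Hepes pH 7.5, 10 mM MnCl2, 5% DMSO, 40 min at room temperature. Phosphorylation read by AlphaScreen (streptavidin donor, PY20 acceptor beads); IC50 from signal vs compound concentration. TrkC run similarly.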
TrkA kinase, sequence (P04629 33-796): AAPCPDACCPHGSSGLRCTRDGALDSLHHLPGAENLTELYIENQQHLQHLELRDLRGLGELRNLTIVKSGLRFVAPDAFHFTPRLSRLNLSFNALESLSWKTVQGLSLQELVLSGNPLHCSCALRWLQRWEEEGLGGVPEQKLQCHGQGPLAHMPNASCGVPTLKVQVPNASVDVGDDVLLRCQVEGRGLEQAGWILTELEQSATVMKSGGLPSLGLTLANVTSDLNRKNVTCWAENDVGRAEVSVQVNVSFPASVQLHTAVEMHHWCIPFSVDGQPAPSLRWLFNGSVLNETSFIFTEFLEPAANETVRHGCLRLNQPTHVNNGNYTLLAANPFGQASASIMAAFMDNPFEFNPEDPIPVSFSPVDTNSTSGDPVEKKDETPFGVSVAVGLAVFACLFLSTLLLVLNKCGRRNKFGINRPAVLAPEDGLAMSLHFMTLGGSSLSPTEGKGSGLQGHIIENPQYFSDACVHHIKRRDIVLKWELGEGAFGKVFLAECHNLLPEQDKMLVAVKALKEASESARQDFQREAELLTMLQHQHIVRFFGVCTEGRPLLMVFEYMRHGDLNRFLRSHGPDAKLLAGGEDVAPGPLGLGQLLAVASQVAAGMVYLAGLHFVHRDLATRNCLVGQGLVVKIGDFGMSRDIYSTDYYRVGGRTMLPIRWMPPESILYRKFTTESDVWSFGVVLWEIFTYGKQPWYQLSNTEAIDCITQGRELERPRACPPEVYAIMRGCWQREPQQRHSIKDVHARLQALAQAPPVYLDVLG

T1 sequence (Q16288 whole entry, the tested form may be a part): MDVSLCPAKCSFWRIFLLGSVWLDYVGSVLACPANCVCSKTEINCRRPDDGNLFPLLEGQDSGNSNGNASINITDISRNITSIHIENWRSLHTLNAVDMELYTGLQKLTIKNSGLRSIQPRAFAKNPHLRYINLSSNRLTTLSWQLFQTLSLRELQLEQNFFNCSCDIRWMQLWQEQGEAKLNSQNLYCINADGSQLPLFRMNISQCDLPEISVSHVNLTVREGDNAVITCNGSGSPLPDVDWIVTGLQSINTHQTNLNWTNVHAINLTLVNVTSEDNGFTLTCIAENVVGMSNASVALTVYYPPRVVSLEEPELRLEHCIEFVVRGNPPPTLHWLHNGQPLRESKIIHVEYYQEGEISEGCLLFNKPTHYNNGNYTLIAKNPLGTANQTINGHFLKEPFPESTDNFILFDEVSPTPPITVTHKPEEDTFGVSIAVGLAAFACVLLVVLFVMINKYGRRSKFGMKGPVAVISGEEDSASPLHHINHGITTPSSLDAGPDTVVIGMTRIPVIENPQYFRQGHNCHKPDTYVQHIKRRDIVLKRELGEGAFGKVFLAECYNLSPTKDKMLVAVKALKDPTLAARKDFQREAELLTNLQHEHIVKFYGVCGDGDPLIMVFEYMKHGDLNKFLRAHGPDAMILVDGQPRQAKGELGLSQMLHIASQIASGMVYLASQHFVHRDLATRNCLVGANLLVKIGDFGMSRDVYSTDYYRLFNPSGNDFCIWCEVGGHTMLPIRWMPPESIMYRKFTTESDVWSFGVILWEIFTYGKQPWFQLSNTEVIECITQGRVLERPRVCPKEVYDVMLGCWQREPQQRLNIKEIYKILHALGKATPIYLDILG

`CCc1ccc(Nc2ccc(C(=O)c3c[nH]c4ncnc(NC)c34)c(F)n2)cn1` [Compound P-4124, [6-[(6-ethyl-3-pyridyl)amino]-2-fluoro-3-pyridyl]-[4-(methylamino)-7H-pyrrolo[2,3-d]pyrimidin-5-yl]methanone]: the IC50 on BCR-NTRK3 BaF3 cells and on TrkA kinase was below 10 nM each time.

In the case of `CNc1ncnc2[nH]cc(C(=O)c3ccc(Nc4cncc(OC)c4)nc3F)c12` [Compound P-4108, [2-fluoro-6-[(5-methoxy-3-pyridyl)amino]-3-pyridyl]-[4-(methylamino)-7H-pyrrolo[2,3-d]pyrimidin-5-yl]methanone], the IC50 on BCR-NTRK3 BaF3 cells and on TrkA kinase was below 100 nM in each case.

Take `O=C(c1ccc(NC2CCC(F)(F)CC2)nc1)c1c[nH]c2ncnc(NC3CC3)c12` [Compound P-4088, [4-(cyclopropylamino)-7H-pyrrolo[2,3-d]pyrimidin-5-yl]-[6-[(4,4-difluorocyclohexyl)amino]-3-pyridyl]methanone]: the IC50 on BCR-NTRK3 BaF3 cells and on TrkA kinase was below 10 nM in each case.

Consider `Fc1cc(Cc2c[nH]c3ncnc(NC4CC4)c23)cnc1NC1CCC(F)(F)CC1` [Compound P-4127, N-cyclopropyl-5-[[6-[(4,4-difluorocyclohexyl)amino]-5-fluoro-3-pyridyl]methyl]-7H-pyrrolo[2,3-d]pyrimidin-4-amine], for which the IC50 at BCR-NTRK3 BaF3 cells and at TrkA kinase was below 100 nM in each case.

With `COc1ccc(Nc2ccc(C(=O)c3c[nH]c4ncnc(N[C@@H](C)c5ccc(F)cc5)c34)c(F)n2)cn1` [Compound P-4072, [2-fluoro-6-[(6-methoxy-3-pyridyl)amino]-3-pyridyl]-[4-[[(1S)-1-(4-fluorophenyl)ethyl]amino]-7H-pyrrolo[2,3-d]pyrimidin-5-yl]methanone], the IC50 is below 10 nM on BCR-NTRK3 BaF3 cells and below 100 nM at TrkA kinase.

For `O=C(c1ccc(Nc2ccc(C3CC3)nc2)nc1F)c1c[nH]c2ncnc(NCC(F)(F)F)c12` [Compound P-4090, [6-[(6-cyclopropyl-3-pyridyl)amino]-2-fluoro-3-pyridyl]-[4-(2,2,2-trifluoroethylamino)-7H-pyrrolo[2,3-d]pyrimidin-5-yl]methanone], the results for the IC50 at BCR-NTRK3 BaF3 cells and at TrkA kinase were below 10 nM and below 100 nM, respectively.

Regarding `COc1cncc(Nc2ccc(C(=O)c3c[nH]c4ncnc(NCC(F)(F)F)c34)c(F)n2)c1` [Compound P-4103, [2-fluoro-6-[(5-methoxy-3-pyridyl)amino]-3-pyridyl]-[4-(2,2,2-trifluoroethylamino)-7H-pyrrolo[2,3-d]pyrimidin-5-yl]methanone], the IC50 was above 1000 nM at BCR-NTRK3 BaF3 cells and below 100 nM on TrkA kinase.

For the compound `CNc1ncnc2[nH]cc(C(=O)c3ccc(Nc4ccc(OC)nc4)nc3F)c12` [Compound P-4083, [2-fluoro-6-[(6-methoxy-3-pyridyl)amino]-3-pyridyl]-[4-(methylamino)-7H-pyrrolo[2,3-d]pyrimidin-5-yl]methanone], the IC50 at BCR-NTRK3 BaF3 cells and on TrkA kinase was below 10 nM throughout.

`CNc1ncnc2[nH]cc(C(=O)c3ccc(NC4CCC(F)(F)CC4)nc3Cl)c12` [Compound P-4058, [2-chloro-6-[(4,4-difluorocyclohexyl)amino]-3-pyridyl]-[4-(methylamino)-7H-pyrrolo[2,3-d]pyrimidin-5-yl]methanone]: the IC50 at BCR-NTRK3 BaF3 cells was below 100 nM; on TrkA kinase, below 1000 nM.

On to `CCc1ccc(Nc2ccc(C(=O)c3c[nH]c4ncnc(NC5CCC5)c34)c(F)n2)cn1` [Compound P-4095, [4-(cyclobutylamino)-7H-pyrrolo[2,3-d]pyrimidin-5-yl]-[6-[(6-ethyl-3-pyridyl)amino]-2-fluoro-3-pyridyl]methanone], for which the IC50 on BCR-NTRK3 BaF3 cells and on TrkA kinase was below 10 nM each time.

Regarding `COc1ccc(Nc2ccc(C(=O)c3c[nH]c4ncnc(N5CCOCC5)c34)c(F)n2)cn1` [Compound P-4070, [2-fluoro-6-[(6-methoxy-3-pyridyl)amino]-3-pyridyl]-(4-morpholino-7H-pyrrolo[2,3-d]pyrimidin-5-yl)methanone], the IC50 on BCR-NTRK3 BaF3 cells and at TrkA kinase was above 1000 nM in each case.

As to `O=C(c1ccc(NC2CCC(F)(F)CC2)nc1Cl)c1c[nH]c2ncnc(NC3CC3)c12` [Compound P-4059, [2-chloro-6-[(4,4-difluorocyclohexyl)amino]-3-pyridyl]-[4-(cyclopropylamino)-7H-pyrrolo[2,3-d]pyrimidin-5-yl]methanone], the IC50 on BCR-NTRK3 BaF3 cells and on TrkA kinase was below 100 nM each time.

`CNc1ncnc2[nH]cc(C(=O)c3ccc(Nc4ccc(C(F)(F)F)nc4)nc3F)c12` [Compound P-4092, [2-fluoro-6-[[6-(trifluoromethyl)-3-pyridyl]amino]-3-pyridyl]-[4-(methylamino)-7H-pyrrolo[2,3-d]pyrimidin-5-yl]methanone]: the IC50 on BCR-NTRK3 BaF3 cells and at TrkA kinase was below 10 nM in each case.

For `CCc1ccc(Nc2ccc(C(=O)c3c[nH]c4ncnc(NC5CC5)c34)c(F)n2)cn1` [Compound P-4125, [4-(cyclopropylamino)-7H-pyrrolo[2,3-d]pyrimidin-5-yl]-[6-[(6-ethyl-3-pyridyl)amino]-2-fluoro-3-pyridyl]methanone], the IC50 on BCR-NTRK3 BaF3 cells and on TrkA kinase was below 10 nM each time.

Consider `CCCNc1ncnc2[nH]cc(C(=O)c3ccc(Nc4cncc(OC)c4)nc3F)c12` [Compound P-4105, [2-fluoro-6-[(5-methoxy-3-pyridyl)amino]-3-pyridyl]-[4-(propylamino)-7H-pyrrolo[2,3-d]pyrimidin-5-yl]methanone], for which the IC50 at BCR-NTRK3 BaF3 cells is below 1000 nM; at TrkA kinase, below 100 nM.

`COc1cncc(Nc2ccc(C(=O)c3c[nH]c4ncnc(NC(C)C)c34)c(F)n2)c1` [Compound P-4106, [2-fluoro-6-[(5-methoxy-3-pyridyl)amino]-3-pyridyl]-[4-(isopropylamino)-7H-pyrrolo[2,3-d]pyrimidin-5-yl]methanone]: the IC50 at BCR-NTRK3 BaF3 cells and at TrkA kinase was below 10 nM throughout.

On to `Fc1ccccc1Nc1ncc(Cc2c[nH]c3ncc(Cl)cc23)cn1` [Compound P-3014, [5-(5-Chloro-1H-pyrrolo[2,3-b]pyridin-3-ylmethyl)-pyrimidin-2-yl]-(2-fluoro-phenyl)-amine], for which the IC50 on BCR-NTRK3 BaF3 cells was above 10000 nM; on TrkA kinase it was above 1000 nM.

Turning to `COc1cncc(Nc2ccc(C(=O)c3c[nH]c4ncnc(NC5CC5)c34)c(F)n2)c1` [Compound P-4107, [4-(cyclopropylamino)-7H-pyrrolo[2,3-d]pyrimidin-5-yl]-[2-fluoro-6-[(5-methoxy-3-pyridyl)amino]-3-pyridyl]methanone], the IC50 at BCR-NTRK3 BaF3 cells and on TrkA kinase was below 10 nM each time.

As to `CCc1ccc(Nc2ccc(C(=O)c3c[nH]c4ncnc(NCC(C)(C)O)c34)c(F)n2)cn1` [Compound P-4064, [6-[(6-ethyl-3-pyridyl)amino]-2-fluoro-3-pyridyl]-[4-[(2-hydroxy-2-methyl-propyl)amino]-7H-pyrrolo[2,3-d]pyrimidin-5-yl]methanone], the IC50 at BCR-NTRK3 BaF3 cells and on TrkA kinase was below 10 nM throughout.

Consider `O=C(c1ccc(NC2CCC(F)(F)CC2)nc1F)c1c[nH]c2ncnc(NC3CC3)c12` [Compound P-4062, [4-(cyclopropylamino)-7H-pyrrolo[2,3-d]pyrimidin-5-yl]-[6-[(4,4-difluorocyclohexyl)amino]-2-fluoro-3-pyridyl]methanone], for which the IC50 at BCR-NTRK3 BaF3 cells and at TrkA kinase was below 10 nM in each case.

With `Cc1cnc2[nH]cc(Cc3cnc(Nc4ccc(F)cc4)nc3)c2c1` [Compound P-3010, (4-Fluoro-phenyl)-[5-(5-methyl-1H-pyrrolo[2,3-b]pyridin-3-ylmethyl)-pyrimidin-2-yl]-amine], the IC50 on BCR-NTRK3 BaF3 cells is above 10000 nM; on TrkA kinase, below 1000 nM.

Take `CNc1ncnc2[nH]cc(C(=O)c3ccc(NC4CCC(F)(F)CC4)nc3)c12` [Compound P-4089, [6-[(4,4-difluorocyclohexyl)amino]-3-pyridyl]-[4-(methylamino)-7H-pyrrolo[2,3-d]pyrimidin-5-yl]methanone]: the IC50 at BCR-NTRK3 BaF3 cells was below 10 nM; on TrkA kinase, below 100 nM.

As for `CCNc1ncnc2[nH]cc(C(=O)c3ccc(Nc4ccc(CC)nc4)nc3F)c12` [Compound P-4123, [4-(ethylamino)-7H-pyrrolo[2,3-d]pyrimidin-5-yl]-[6-[(6-ethyl-3-pyridyl)amino]-2-fluoro-3-pyridyl]methanone], the IC50 on BCR-NTRK3 BaF3 cells and on TrkA kinase was below 10 nM each time.

Consider `CCC(CC)Nc1ncnc2[nH]cc(C(=O)c3ccc(Nc4ccc(OC)nc4)nc3F)c12` [Compound P-4077, [4-(1-ethylpropylamino)-7H-pyrrolo[2,3-d]pyrimidin-5-yl]-[2-fluoro-6-[(6-methoxy-3-pyridyl)amino]-3-pyridyl]methanone], for which the IC50 on BCR-NTRK3 BaF3 cells and at TrkA kinase was below 10 nM in each case.

`CCC(C)Nc1ncnc2[nH]cc(C(=O)c3ccc(Nc4ccc(OC)nc4)nc3F)c12` (stereo not shown) [Compound P-4078, [2-fluoro-6-[(6-methoxy-3-pyridyl)amino]-3-pyridyl]-[4-(sec-butylamino)-7H-pyrrolo[2,3-d]pyrimidin-5-yl]methanone]: the IC50 on BCR-NTRK3 BaF3 cells and on TrkA kinase was below 10 nM throughout.

On to `COc1ccc(Nc2ccc(C(=O)c3c[nH]c4ncnc(NCC5CCCO5)c34)c(F)n2)cn1` (stereo not shown) [Compound P-4073, [2-fluoro-6-[(6-methoxy-3-pyridyl)amino]-3-pyridyl]-[4-(tetrahydrofuran-2-ylmethylamino)-7H-pyrrolo[2,3-d]pyrimidin-5-yl]methanone], for which the IC50 on BCR-NTRK3 BaF3 cells and at TrkA kinase was below 10 nM each time.
